Data on six molecules can be found in patent US20150330991A1, “METHOD FOR IMPROVING TARGET AFFINITY OF PEPTIDE” (GWANGJU INSTITUTE OF SCIENCE AND TECHNOLOGY, priority 2012, published 2015).

Peptide text beside a SMILES is read from it.

Test [1] addresses T1, streptavidin (Streptomyces avidinii, UniProt P22629). As to the kind of experiment: Phage ELISA specificity to streptavidin versus BSA, ovalbumin and VEGF. Format: binding. As to conditions: ovalbumin, VEGF coated wells. As for the experimental part: In order to investigate specificities to streptavidin, of peptides (Strep_opti1 and Strep_opti2) obtained through sequencing, recombinant phages expressing these peptides were used to investigate specificities to streptavidin, BSA, ovalbumin, and VEGF. First, 5 μg/ml streptavidin, BSA, ovalbumin, and VEGF were put in a 96-well ELISA plate (50 μl per well), and then allowed to stand at 4° C. overnight. Next day, all the wells were washed three times with 0.1% PBST, and blocked at room temperature for 2 hrs using 2% BSA diluted with PBS. Then, the solution was discarded, followed by washing with 0.1% PBST three times. 800 μl of recombinant phages of each of Strep_opti1 and Strep_opti2 and 200 μl of 10% BSA were added thereto, and each 100 μl was dispensed into streptavidin, BSA, ovalbumin, and VEGF wells, followed by standing at 27° C. for 1 hr. After washing five times with 0.1% PBST solution, the HRP-conjugated anti-M13 antibody (GE Healthcare) was diluted to 1:1,000, and then the reaction was performed at 27° C. for 1 hr. After washing five times with 0.1% PBST, 100 μl of the TMB solution was dispensed into each well to induce a colorimetric reaction, and then the reaction was stopped by adding 100 μl of 1 M HCl. The absorbance was measured at 450 nm.
On the technique in general: An ELISA detects its analyte on a solid surface through an enzyme-linked reagent.

The target in test [2] is T1, streptavidin. As to the kind of experiment: SPR (BIAcore) binding assay of Strep_opti1 and control peptide on immobilized streptavidin. As to conditions: from KD values. The procedure:
A streptavidin-binding peptide optimized peptide and an existing peptide were synthesized (Anygen). The affinity measurement was conducted using BIAcore X (Biacore AB, Uppsala, Sweden). Here, 2000 RU of streptavidin was allowed to flow on the CM5 chip (Biacore) for immobilization. PBS (pH 7.4) was used as a running buffer, and the kinetics at different concentrations was measured under a flow rate of 30 μl per minute. The affinity was calculated using BlAevaluation software (Biacore AB, Uppsala, Sweden).
(In general: In SPR one partner is held on a chip, and binding of the other changes the refractive index at the surface.)

For a further test, the target named is T2, ED-B protein (Homo sapiens, UniProt P02751).
T2 construct: Biopanning on ED-B domain
T2 sequence (P02751 1271-1359 limits assumed): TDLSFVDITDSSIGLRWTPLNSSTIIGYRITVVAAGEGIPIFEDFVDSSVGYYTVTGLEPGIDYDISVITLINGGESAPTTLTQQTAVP
As to the kind of experiment: SPR (BIAcore) binding strength assay on immobilized biotin-EDB. The note with it: for Kd: read-out: KD = Koff/Kon. As for the experimental part:
The bipodal peptide binder found from BPB2EDB, BPB3EDB, and BPB4EDB maturation libraries were synthesized (Anygen, Korea). The affinity measurement was conducted using BIAcore X (Biacore AB, Uppsala, Sweden). 2,000 RU of biotin-EDB was allowed to flow on the streptavidin SA chip (Biacore) for immobilization. PBS (pH 7.4) was used as a running buffer, and kinetics at different concentrations was measured under a flow rate of 30 μl per minute. The affinity was calculated using BlAevaluation software (Biacore AB, Uppsala, Sweden).

In another test the target is VEGFR1 (Homo sapiens, UniProt P17948). The test is described as follows: SPR (BIAcore) binding assay of VEGFR1_opti1 and control peptide on immobilized VEGFR1. The procedure:
A VEGFR1-binding peptide optimized peptide and an existing peptide were synthesized (Anygen). The affinity measurement was conducted using BIAcore X (Biacore AB, Uppsala, Sweden). Here, 7000 RU of VEGFR1 was allowed to flow on the CM5 chip (Biacore) for immobilization. PBS (pH 7.4) was used as a running buffer, and the kinetics at different concentrations was measured under a flow rate of 30 μl per minute. The affinity was calculated using BlAevaluation software (Biacore AB, Uppsala, Sweden).

T1 sequence (P22629 25-183): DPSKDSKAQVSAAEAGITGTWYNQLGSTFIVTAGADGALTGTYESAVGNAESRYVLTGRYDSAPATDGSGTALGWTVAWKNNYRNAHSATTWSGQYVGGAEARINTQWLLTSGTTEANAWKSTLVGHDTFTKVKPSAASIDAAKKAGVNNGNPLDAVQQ
Sequence of VEGFR1 (P17948 27-1338, species assumed): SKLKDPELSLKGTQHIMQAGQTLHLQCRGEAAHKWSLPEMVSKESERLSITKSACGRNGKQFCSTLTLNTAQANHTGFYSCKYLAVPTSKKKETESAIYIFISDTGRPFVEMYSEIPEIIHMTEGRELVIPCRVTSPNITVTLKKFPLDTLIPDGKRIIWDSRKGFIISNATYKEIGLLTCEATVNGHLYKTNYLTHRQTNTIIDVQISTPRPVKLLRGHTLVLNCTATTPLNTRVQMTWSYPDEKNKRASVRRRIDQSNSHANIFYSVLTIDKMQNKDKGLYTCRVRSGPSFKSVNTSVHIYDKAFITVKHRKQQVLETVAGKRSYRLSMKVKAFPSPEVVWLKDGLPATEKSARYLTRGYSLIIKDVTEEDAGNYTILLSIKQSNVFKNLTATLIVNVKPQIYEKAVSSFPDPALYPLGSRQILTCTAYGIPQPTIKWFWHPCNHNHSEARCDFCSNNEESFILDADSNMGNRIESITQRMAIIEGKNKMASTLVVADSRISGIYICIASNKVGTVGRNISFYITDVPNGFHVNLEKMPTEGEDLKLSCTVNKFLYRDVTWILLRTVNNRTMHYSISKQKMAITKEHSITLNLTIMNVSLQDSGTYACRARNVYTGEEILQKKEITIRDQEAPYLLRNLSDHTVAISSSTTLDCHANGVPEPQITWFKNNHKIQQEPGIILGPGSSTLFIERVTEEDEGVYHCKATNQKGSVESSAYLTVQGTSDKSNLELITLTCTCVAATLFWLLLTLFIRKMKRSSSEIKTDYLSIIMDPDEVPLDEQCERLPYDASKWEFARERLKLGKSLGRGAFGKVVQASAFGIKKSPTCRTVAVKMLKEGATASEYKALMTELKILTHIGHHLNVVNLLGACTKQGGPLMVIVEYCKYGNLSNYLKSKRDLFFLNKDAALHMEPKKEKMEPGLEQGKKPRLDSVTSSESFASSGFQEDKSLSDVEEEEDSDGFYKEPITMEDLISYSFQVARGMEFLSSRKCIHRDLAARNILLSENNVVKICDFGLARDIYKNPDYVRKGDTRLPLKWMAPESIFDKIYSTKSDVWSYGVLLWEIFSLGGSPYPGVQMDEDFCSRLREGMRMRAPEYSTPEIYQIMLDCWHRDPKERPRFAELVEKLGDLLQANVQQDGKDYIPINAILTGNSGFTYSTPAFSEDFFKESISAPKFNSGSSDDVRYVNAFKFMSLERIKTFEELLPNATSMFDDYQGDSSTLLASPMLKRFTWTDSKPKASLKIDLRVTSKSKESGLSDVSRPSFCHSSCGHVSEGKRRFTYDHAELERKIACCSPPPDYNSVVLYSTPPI

Turning to `CC(C)[C@H](NC(=O)[C@H](CCC(N)=O)NC(=O)[C@@H]1CCCN1C(=O)[C@H](Cc1c[nH]cn1)NC(=O)[C@H](C)NC(=O)CNC(=O)[C@H](CCCCN)NC(=O)[C@H](Cc1c[nH]c2ccccc12)NC(=O)[C@@H](NC(=O)[C@H](Cc1c[nH]c2ccccc12)NC(=O)[C@H](CCCCN)NC(=O)CNC(=O)[C@H](CC(N)=O)NC(=O)[C@H](CCC(=O)O)NC(=O)[C@H](Cc1c[nH]c2ccccc12)NC(=O)[C@@H](NC(=O)[C@H](Cc1c[nH]c2ccccc12)NC(=O)[C@H](CO)NC(=O)CNC(=O)CNC(=O)CNC(=O)[C@H](CCCCN)NC(=O)[C@H](CCC(=O)O)NC(=O)[C@H](Cc1ccccc1)NC(=O)[C@H](CCC(N)=O)NC(=O)[C@@H]1CCCN1C(=O)[C@H](Cc1c[nH]cn1)NC(=O)[C@H](CO)NC(=O)[C@@H](N)Cc1c[nH]c2ccccc12)[C@@H](C)O)[C@@H](C)O)C(=O)N[C@@H](CCCNC(=N)N)C(=O)O` [Strep_opti1] (H-WSHPQFEKGGGSWTWENGKWTWKGAHPQVR-OH; N-terminus and C-terminus assumed), at streptavidin [1], the “specificity (phage ELISA absorbance at 450 nm)” value is reported as “specifically bind to streptavidin”. At streptavidin [2], the “fold increase in affinity compared with control peptide WSHPQFEK” value was 1223 fold. Regarding `CC[C@H](C)[C@H](NC(=O)CNC(=O)[C@H](CCCCN)NC(=O)[C@H](Cc1c[nH]c2ccccc12)NC(=O)[C@@H](NC(=O)[C@H](Cc1c[nH]c2ccccc12)NC(=O)[C@H](CCCCN)NC(=O)CNC(=O)[C@H](CC(N)=O)NC(=O)[C@H](CCC(=O)O)NC(=O)[C@H](Cc1c[nH]c2ccccc12)NC(=O)[C@@H](NC(=O)[C@H](Cc1c[nH]c2ccccc12)NC(=O)[C@H](CO)NC(=O)CNC(=O)[C@H](CCC(N)=O)NC(=O)[C@@H](NC(=O)[C@@H]1CCCN1C(=O)[C@H](CO)NC(=O)[C@H](CO)NC(=O)[C@@H](N)CS)[C@@H](C)CC)[C@@H](C)O)[C@@H](C)O)C(=O)N[C@H](C(=O)N[C@@H](CCCNC(=N)N)C(=O)N[C@@H](CC(C)C)C(=O)N[C@@H](CCC(=O)O)C(=O)N[C@@H](CCC(N)=O)C(=O)O)[C@@H](C)CC` [peptide 3] (H-CSSPIQGSWTWENGKWTWKGIIRLEQ-OH; N-terminus and C-terminus assumed), on ED-B protein (SPR, target binding kinetics), the Koff is given as 5.1 × 10^−4 S^−1, the Kon is on record as 3.0 × 10^4 M^−1S^−1 and the Kd was 16 nM. Take `CC[C@H](C)[C@H](NC(=O)CNC(=O)[C@H](CCCCN)NC(=O)[C@H](Cc1c[nH]c2ccccc12)NC(=O)[C@@H](NC(=O)[C@H](Cc1c[nH]c2ccccc12)NC(=O)[C@H](CCCCN)NC(=O)CNC(=O)[C@H](CC(N)=O)NC(=O)[C@H](CCC(=O)O)NC(=O)[C@H](Cc1c[nH]c2ccccc12)NC(=O)[C@@H](NC(=O)[C@H](Cc1c[nH]c2ccccc12)NC(=O)[C@H](CO)NC(=O)CNC(=O)[C@@H](NC(=O)[C@H](C)NC(=O)[C@H](CO)NC(=O)[C@H](CO)NC(=O)[C@H](CS)NC(=O)[C@@H](N)Cc1c[nH]cn1)C(C)C)[C@@H](C)O)[C@@H](C)O)C(=O)N[C@H](C(=O)N[C@@H](CCCNC(=N)N)C(=O)N[C@@H](CC(C)C)C(=O)N[C@@H](CCC(=O)O)C(=O)N[C@@H](CCC(N)=O)C(=O)O)[C@@H](C)CC` [BPB1EDB] (H-HCSSAVGSWTWENGKWTWKGIIRLEQ-OH; N-terminus and C-terminus assumed): the Kd on ED-B protein (SPR, target binding kinetics) came to 75 nM. As for “GNQWFIGGGSWTWENGKWTWKGRIPKNR (VEGFR1_opti1)”, the SPR response increase in the test with VEGFR1 (at 5 μM peptide) turned out to be 45 RU. In the test with VEGFR1 (from RU at 5 μM versus 200 μM), the “fold increase in affinity versus control peptide” value is listed as “about 360 fold”. As to `CC[C@H](C)[C@H](NC(=O)CNC(=O)[C@H](CCCCN)NC(=O)[C@H](Cc1c[nH]c2ccccc12)NC(=O)[C@@H](NC(=O)[C@H](Cc1c[nH]c2ccccc12)NC(=O)[C@H](CCCCN)NC(=O)CNC(=O)[C@H](CC(N)=O)NC(=O)[C@H](CCC(=O)O)NC(=O)[C@H](Cc1c[nH]c2ccccc12)NC(=O)[C@@H](NC(=O)[C@H](Cc1c[nH]c2ccccc12)NC(=O)[C@H](CO)NC(=O)CNC(=O)[C@H](CCC(N)=O)NC(=O)[C@@H](NC(=O)[C@@H]1CCCN1C(=O)[C@H](CO)NC(=O)[C@H](CO)NC(=O)[C@H](CS)NC(=O)[C@H](CO)NC(=O)[C@@H](N)Cc1c[nH]cn1)[C@@H](C)CC)[C@@H](C)O)[C@@H](C)O)C(=O)N[C@H](C(=O)N[C@@H](CCCNC(=N)N)C(=O)N[C@@H](CC(C)C)C(=O)N[C@@H](CCC(=O)O)C(=O)N[C@@H](CCC(N)=O)C(=O)N[C@@H](CCC(N)=O)C(=O)N1CCC[C@H]1C(=O)O)[C@@H](C)CC` [BPB4EDB] (H-HSCSSPIQGSWTWENGKWTWKGIIRLEQQP-OH; N-terminus and C-terminus assumed), the “fold increase in affinity compared with BPB1” value on ED-B protein (through the optimization system) turned out to be 21 fold. Consider “WSHPQFEKGGGSWTWENGKWTWKG TLIHPM [Strep_opti2]”, for which, on streptavidin [1], the “specificity (phage ELISA absorbance at 450 nm)” value was “specifically bind to streptavidin”.
